According to US20220047609A1, “VAGINAL INSERTED ESTRADIOL PHARMACEUTICAL COMPOSITIONS AND METHODS” (THERAPEUTICSMD, INC., priority 2012, published 2022):
One block for each compound: values may come before it.

Assays:
[1] = solubility of estradiol in the solubilizing agent; * denotes literature reference; cited from earlier work
[2] = Estradiol solubility in solubilizing agents (HPLC); assay type: physicochemical; conditions: solubility of estradiol in the solubilizing agent, equilibrated three days
Procedure: Initial solubility was measured by dissolving micronized estradiol into various solubilizing agents until the estradiol was saturated (the estradiol/solubilizing agent equilibrated for three days), filtering the undissolved estradiol, and analyzing the resulting pharmaceutical composition for estradiol concentration by HPLC.

dyspareunia = conditions: cited from earlier work

Compound: CC(O)CO (stereo not shown) [Propylene Glycol]
Solubility (mg/g) [1]: 75* mg/g

Solubility [2]: 141 mg/g
Compound: CCOCCOCCO [TRANSCUTOL HP, 2-(2-ethoxyethoxy)ethanol]

Compound: OCCOc1ccc(/C(=C(/CCCl)c2ccccc2)c2ccccc2)cc1 [ospemifene]
vaginal discharge, frequency relative to the placebo group (dyspareunia; 12-week study): more than 6 times
week until which statistically significant improvements of dyspareunia were not observed (dyspareunia; human, in vivo): 12 week
